Counter-ions that a name gives are not always drawn. Like-named read-outs stand apart in the source and are kept apart here.
Molecular target: T1, human adenosine A2A receptor (Homo sapiens, UniProt P29274)
T1 construct: expressed in transfected cells; host or cells: CHO cells, Semliki Forest virus expression system; washed membrane pellet used
Experiment: [3H]-SCH-58261 binding assay at the human adenosine A2A receptor
Procedure: Human Adenosine A2A Receptor
The human adenosine A2A receptor was recombinantly expressed in chinese hamster ovary (CHO) cells using the semliki forest virus expression system. Cells were harvested, washed twice by centrifugation, homogenised and again washed by centrifugation. The final washed membrane pellet was suspended in a Tris (50 mM) buffer containing 120 mM NaCl, 5 mM KCl, 2 mM CaCl2 and 10 mM MgCl2 (pH 7.4) (buffer A). The [^3H]-SCH-58261 (Dionisotti et al., 1997, Br J Pharmacol 121, 353; 1 nM) binding assay was carried out in 96-well plates in the presence of 2.5 μg of membrane protein, 0.5 mg of Ysi-poly-1-lysine SPA beads and 0.1 U adenosine deaminase in a final volume of 200 μl of buffer A. Non-specific binding was defined using xanthine amine congener (XAC; 2 μM). Compounds were tested at 10 concentrations from 10 μM-0.3 nM. All assays were conducted in duplicate and repeated at least two times. Assay plates were incubated for 1 hour at room temperature before centrifugation and then bound ligand determined using a Packard Topcount scintillation counter. IC50 values were calculated using a non-linear curve fitting program and Ki values calculated using the Cheng-Prussoff equation.

[1] = read-out: pKi value (converted)

T1 sequence (P29274 whole entry): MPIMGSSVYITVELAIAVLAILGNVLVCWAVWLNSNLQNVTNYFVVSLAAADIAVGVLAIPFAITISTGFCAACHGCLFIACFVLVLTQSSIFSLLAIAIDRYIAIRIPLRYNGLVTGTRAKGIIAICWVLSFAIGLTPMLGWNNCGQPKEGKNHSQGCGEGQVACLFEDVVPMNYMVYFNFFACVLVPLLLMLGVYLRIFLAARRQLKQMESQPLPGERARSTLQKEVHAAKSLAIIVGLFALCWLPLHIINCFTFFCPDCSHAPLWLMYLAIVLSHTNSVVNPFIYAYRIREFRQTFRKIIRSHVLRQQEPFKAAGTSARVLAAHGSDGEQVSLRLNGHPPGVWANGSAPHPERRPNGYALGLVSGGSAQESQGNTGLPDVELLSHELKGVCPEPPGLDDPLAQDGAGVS

SMILES	Ki [1] [nM]	Ki [nM]
COCCN(C)Cc1cccc(C(=O)Nc2nc3c(OC)ccc(N4CCOCC4)c3s2)c1 [Example 287, 3-{[(2-Methoxy-ethyl)-methyl-amino]-methyl}-N-(4-methoxy-7-morpholin-4-yl-benzothiazol-2-yl)-benzamide]	3.16	–
COc1ccc(-c2ccccc2)c2sc(NC(=O)c3ccc(CNCCO)cc3)nc12 [Example 92, 4-[(2-Hydroxy-ethylamino)-methyl]-N-(4-methoxy-7-phenyl-benzothiazol-2-yl)-benzamide hydrochloride salt (1:1)]	1.26	–
COc1ccc(N2CCOCC2)c2sc(NC(=O)C3CCN(C(=O)OC(C)(C)C)CC3)nc12 [Example 326, 4-(4-Methoxy-7-morpholin-4-yl-benzothiazol-2-ylcarbamoyl)-piperidine-1-carboxylic acid tert-butyl ester]	3.16	–
COc1ccc(N2CCOCC2)c2sc(NC(=O)c3ccc(Cl)c(CN4CCCC4)c3)nc12 [Example 283, 4-Chloro-N-(4-methoxy-7-morpholin-4-yl-benzothiazol-2-yl)-3-pyrrolidin-1-ylmethyl-benzamide]	1	–
COC(=O)Nc1nc2c(OC)ccc(-c3csc(-c4ccc(C)nc4)n3)c2s1 [Example 201, {4-Methoxy-7-[2-(6-methyl-pyridin-3-yl)-thiazol-4-yl]-benzothiazol-2-yl}-carbamic acid methyl ester]	2.51	–
COc1ccc(-c2ccccc2)c2sc(NC(=O)c3ccc(CN4CCC(O)CC4)cc3)nc12 [Example 108, 4-(4-Hydroxy-piperidin-1-ylmethyl)-N-(4-methoxy-7-phenyl-benzothiazol-2-yl)-benzamide hydrochloride salt (1:1)]	1.26	–
COc1ccc(N2CCOCC2)c2sc(NC(=O)c3cccc(CN4CCCC4)c3)nc12 [Example 289, N-(4-Methoxy-7-morpholin-4-yl-benzothiazol-2-yl)-3-pyrrolidin-1-ylmethyl-benzamide]	1.26	–
CCN(CCOC)Cc1cc(C(=O)Nc2nc3c(OC)ccc(N4CCOCC4)c3s2)ccc1Cl [Example 278, 4-Chloro-3-{[ethyl-(2-methoxy-ethyl)-amino]-methyl}-N-(4-methoxy-7-morpholin-4-yl-benzothiazol-2-yl)-benzamide]	3.16	–
COc1ccc(N2CCOCC2)c2sc(NC(=O)C3CCN(C(C)=O)CC3)nc12 [Example 327, 1-Acetyl-piperidine-4-carboxylic acid (4-methoxy-7-morpholin-4-yl-benzothiazol-2-yl)-amide]	3.16	–
COc1ccc(-c2ccccc2)c2sc(NC(=O)c3ccc(F)cc3)nc12 [Example 23, 4-Fluoro-N-(4-methoxy-7-phenyl-benzothiazol-2-yl)-benzamide]	1.26	–
CNCc1cccc(C(=O)Nc2nc3c(OC)ccc(N4CCOCC4)c3s2)c1 [Example 279, N-(4-Methoxy-7-morpholin-4-yl-benzothiazol-2-yl)-3-methylaminomethyl-benzamide]	1.58	–
COCCNCc1cccc(C(=O)Nc2nc3c(OC)ccc(N4CCOCC4)c3s2)c1 [Example 286]	1.58	–
CCOCCN(C)Cc1ccc(C(=O)Nc2nc3c(OC)ccc(N4CCOCC4)c3s2)cc1 [Example 304, 4-{[(2-Ethoxy-ethyl)-methyl-amino]-methyl}-N-(4-methoxy-7-morpholin-4-yl-benzothiazol-2-yl)-benzamide]	3.16	–
COc1ccc(-c2ccccc2)c2sc(NC(=O)c3ccc(CO)cc3)nc12 [Example 17, 4-Hydroxymethyl-N-(4-methoxy-7-phenyl-benzothiazol-2-yl)-benzamide]	0.501	–
COc1ccc(-c2ccccc2)c2sc(NC(=O)c3ccc(CNCc4ccncc4)cc3)nc12 [Example 96, N-(4-Methoxy-7-phenyl-benzothiazol-2-yl)-4-{[(pyridin-4-ylmethyl)-amino]-methyl}-benzamide hydrochloride salt (1:2)]	1.58	–
COc1ccc(-c2csc(-c3ccc(C)nc3)n2)c2sc(NC(=O)N3CCOCC3)nc12 [Example 258]	1.26	–
COc1ccc(-c2ccccc2)c2sc(NC(=O)c3ccc(CNCc4cccnc4)cc3)nc12 [Example 107, N-(4-Methoxy-7-phenyl-benzothiazol-2-yl)-4-{[(pyridin-3-ylmethyl)-amino]-methyl}-benzamide hydrochloride salt (1:2)]	1.58	–
COCCNCc1cc(C(=O)Nc2nc3c(OC)ccc(N4CCOCC4)c3s2)ccc1Cl [Example 282, 4-Chloro-3-[(2-methoxy-ethylamino)-methyl]-N-(4-methoxy-7-morpholin-4-yl-benzothiazol-2-yl)-benzamide]	2.51	–
COc1ccc(N2CCOCC2)c2sc(NC(=O)c3ccc(F)cc3)nc12 [Example 275, 4-Fluoro-N-(4-methoxy-7-morpholin-4-yl-benzothiazol-2-yl)-benzamide]	2	–

SMILES	Ki [1] [nM]	Ki [nM]
COc1ccc(N2CCOCC2)c2sc(NC(=O)c3ccc(C(F)(F)F)cc3)nc12 [Example 271, N-(4-Methoxy-7-morpholin-4-yl-benzothiazol-2-yl)-4-trifluoromethyl-benzamide]	2.51	–
COCCN(C)Cc1ccc(C(=O)Nc2nc3c(OC)ccc(-c4csc(-c5ccc(C)nc5)n4)c3s2)cc1 [Example 238, 4-{[(2-Methoxy-ethyl)-methyl-amino]-methyl}-N-{4-methoxy-7-[2-(6-methyl-pyridin-3-yl)-thiazol-4-yl]-benzothiazol-2-yl}-benzamide]	2	–
COc1ccc(-c2ccnc(C)c2)c2sc(NC(=O)c3ccc(C)s3)nc12 [Example 61, 5-Methyl-thiophene-2-carboxylic acid [4-methoxy-7-(2-methyl-pyridin-4-yl)-benzothiazol-2-yl]-amide]	1.26	–
COc1ccc(N2CCOCC2)c2sc(NC(=O)c3ccc(CSCCN(C)C)cc3)nc12 [Example 298, 4-(2-Dimethylamino-ethylsulfanylmethyl)-N-(4-methoxy-7-morpholin-4-yl-benzothiazol-2-yl)-benzamide]	2	–
COc1ccc(-c2ccccc2)c2sc(NC(=O)c3ccc(C)o3)nc12 [Example 10, 5-Methyl-furan-2-carboxylic acid (4-methoxy-7-phenyl-benzothiazol-2-yl)-amide]	1	–
CCOCCN(CC)Cc1ccc(C(=O)Nc2nc3c(OC)ccc(N4CCOCC4)c3s2)cc1 [Example 301, 4-{[(2-Ethoxy-ethyl)-ethyl-amino]-methyl}-N-(4-methoxy-7-morpholin-4-yl-benzothiazol-2-yl)-benzamide]	3.16	–
CCOCCNCc1ccc(C(=O)Nc2nc3c(OC)ccc(N4CCOCC4)c3s2)cc1 [Example 290, 4-[(2-Ethoxy-ethylamino)-methyl]-N-(4-methoxy-7-morpholin-4-yl-benzothiazol-2-yl)-benzamide]	2.51	–
CNCc1cc(C(=O)Nc2nc3c(OC)ccc(N4CCOCC4)c3s2)ccc1Cl [Example 280, 4-Chloro-N-(4-methoxy-7-morpholin-4-yl-benzothiazol-2-yl)-3-methylaminomethyl-benzamide]	2	–
COc1ccc(-c2ccccc2)c2sc(NC(=O)c3ccc(CN4CC[C@H](N(C)C)C4)cc3)nc12 [Example 125, 4-(3 (S)-Dimethylamino-pyrrolidin-1-ylmethyl)-N-(4-methoxy-7-phenyl-benzothiazol-2-yl)-benzamide hydrochlorde salt (1:2)]	1	–
COc1ccc(N2CCOCC2)c2sc(NC(=O)c3ccc(CN4CCN(C)CC4)cc3)nc12 [Example 309, N-(4-Methoxy-7-morpholin-4-yl-benzothiazol-2-yl)-4-(4-methyl-piperazin-1-yl-methyl)-benzamide]	3.16	–
COc1ccc(N2CCOCC2)c2sc(NC(=O)c3ccccc3)nc12 [Example 277, N-(4-Methoxy-7-morpholin-4-yl-benzothiazol-2-yl)-benzamide]	2	–
COc1ccc(-c2ccccc2)c2sc(NC(=O)c3ccc(CN)cc3)nc12 [Example 121, 4-Aminomethyl-N-(4-methoxy-7-phenyl-benzothiazol-2-yl)-benzamide hydrochloride salt (1:1)]	1	–
COCCOCc1ccc(C(=O)Nc2nc3c(OC)ccc(N4CCOCC4)c3s2)cc1 [Example 314, 4-(2-Methoxy-ethoxymethyl)-N-(4-methoxy-7-morpholin-4-yl-benzothiazol-2-yl)-benzamide]	3.16	–
COCc1ccc(C(=O)Nc2nc3c(OC)ccc(N4CCOCC4)c3s2)cc1 [Example 315, 4-Methoxymethyl-N-(4-methoxy-7-morpholin-4-yl-benzothiazol-2-yl)-benzamide]	2.51	–
COc1ccc(-c2cccc(N)c2)c2sc(NC(=O)c3ccc(C)s3)nc12 [Example 62, 5-Methyl-thiophene-2-carboxylic acid [7-(3-amino-phenyl)-4-methoxy-benzothiazol-2-yl]-amide]	0.794	–
COc1ccc(N2CCSCC2)c2sc(NC(=O)c3ccccc3)nc12 [Example 317, N-(4-Methoxy-7-thiomorpholin-4-yl-benzothiazol-2-yl)-benzamide]	2.51	–
COc1ccc(N2CCOCC2)c2sc(NC(=O)N3CCC(=O)CC3)nc12 [Example 342, 4-Oxo-piperidine-1-carboxylic acid (4-methoxy-7-morpholin-4-yl-benzothiazol-2-yl)-amide]	–	3.16
COc1ccc(N2CCOCC2)c2sc(NC(=O)c3ccc(Cn4ccnc4C)cc3)nc12 [Example 308, N-(4-Methoxy-7-morpholin-4-yl-benzothiazol-2-yl)-4-(2-methyl-imidazol-1-yl-methyl)-benzamide]	0.794	–
